# Data published in article PMC7760315 (Biomolecules, 2020).
# pEC50, pIC50: −log10 of the molar value. “And” between values parts separate entries of the source, which are not always exact repeats. Equal values may be shown once. Read-outs that look alike come from different tables or passages of the source.
# What was measured:
# [1] = system: GlyRα1; details: cited from earlier work; for GlyRα1 Potentiation at EC5 (%): % stimulation of glycine EC5 caused by 1 µM lipid
# [2] = biological target: T1, GlyRα1 (Homo sapiens, UniProt P23415); assay: Two-electrode voltage clamp, Xenopus laevis oocytes expressing GlyRα1 alone; type: cell-based; details: for nH of glycine dose-response in the presence of lipid: 1 µM lipid, fast-flow
# T1 construct: expressed in transfected cells; host or cells: Xenopus laevis oocytes (cRNA injection)
# T1 sequence (P23415 29-457): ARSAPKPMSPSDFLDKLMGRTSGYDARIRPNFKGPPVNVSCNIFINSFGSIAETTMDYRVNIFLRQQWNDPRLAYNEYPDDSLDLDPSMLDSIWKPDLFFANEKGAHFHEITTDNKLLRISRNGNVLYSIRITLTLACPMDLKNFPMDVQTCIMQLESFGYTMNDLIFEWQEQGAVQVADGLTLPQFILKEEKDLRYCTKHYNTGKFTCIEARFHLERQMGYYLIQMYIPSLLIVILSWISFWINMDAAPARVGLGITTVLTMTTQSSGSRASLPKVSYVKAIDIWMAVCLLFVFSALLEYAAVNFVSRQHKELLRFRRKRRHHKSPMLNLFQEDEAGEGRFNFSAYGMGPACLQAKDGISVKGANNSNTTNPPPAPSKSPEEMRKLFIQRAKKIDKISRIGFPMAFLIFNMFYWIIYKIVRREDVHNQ
# From the text: (§1) Human GlyT1b and GlyT2a WT cDNA were subcloned into the plasmid oocyte transcription vector (pOTV) and human GlyRα1, GlyRα3 and GlyRβ into pGEMHE. GlyR cDNA pGEMHE vectors were provided by Mary Collins at the University of Sydney (Sydney, Australia). Single point mutations were introduced into GlyRα1 using the Q5 site-directed mutagenesis kit (New England Biolabs (Genesearch), Arundel, Australia) with oligonucleotide primers (Merck, Sydney, Australia) containing the desired mutations. The amplified cDNA/pOTV or cDNA/pGEMHE product was then transformed in E. coli cells, and subsequently purified using the PureLink Quick Plasmid Miniprep Kit (Invitrogen by Life Technologies, Löhne, Germany), and sequenced by the Australian Genome Research Facility (Sydney, Australia). The purified plasmid DNA was linearised via the restriction enzyme, SpeI (New England Biolabs (Genesearch), Arundel, Australia) for GlyT1b and GlyT2a (henceforth referred to as GlyT1 and GlyT2 respectively) and NheI (New England Biolabs (Genesearch)) for GlyRα1, GlyRα3 and GlyRβ. Complementary RNAs were synthesised using the mMESAGE mMACHINE T7 kit (Ambion, Austin, TX, USA).
# (§2) All work involving the use of animals was performed in accordance with the Australian Code of Practice for the Care and Use of Animals for Scientific Purposes and approved by the University of Sydney Animal Ethics Committee (Approval numbers 2016/970 and 2020/1704). […] The oocytes were then stored in frog Ringer’s solution (96 mM NaCl, 2 mM KCl, 1 mM MgCl2, 1.8 mM CaCl2, 5 mM HEPES, pH 7.5) which was supplemented with 2.5 mM sodium pyruvate, 0.5 mM theophylline, 50 μg/mL gentamicin and […] tetracycline. The oocytes were stored at 18 °C for 3–5 days, until transporter and receptor expression were adequate for measurement using the two-electrode voltage clamp technique.
# (§3) GlyT1, GlyT2, GlyRα1, GlyRα3, GlyRα1β and GlyRα3β are electrogenic, allowing activation to be measured via the two-electrode voltage clamp technique. Oocytes were voltage clamped at −60 mV, and whole-cell currents generated by the substrate were recorded with a Geneclamp 500 amplifier (Axon Instruments, Foster City, CA, USA), digitised by a Powerlab 2/20 chart recorder (ADInstruments, Sydney, Australia). LabChart version 8 software (ADInstruments, Sydney, Australia) was used to visualise and process current traces. Recordings were performed in frog Ringer’s solution, except for low Na^+ experiments where Na^+ was replaced with choline. Oocytes were placed in an oval-shaped bath with a volume of 0.3 mL, with laminar flow around the oocyte at a rate of 12 mL min^−1 under gravity feed.
# (§4) Varying concentrations of substrate or agonist were applied to cells in ND96.
# (§5) Flow of the solution was stopped until the current plateaued, by manually closing a three-way valve on one end of the bath such that the solution in the bath was static and is referred to henceforth as ‘stop-flow’.
# [3] = system: GlyT2; details: cited from earlier work; for GlyT2 Activity: % Inhibition (1 µM): 1 µM lipid, inhibition of glycine transport; for pIC50: inhibition of glycine transport by GlyT2; for GlyT2 Activity: Max inhibition (%): maximal level of inhibition observed
# [4] = biological target: GlyRα1/GlyT2 (Homo sapiens, UniProt P23415); assay: Two-electrode voltage clamp, oocytes co-expressing GlyRα1/GlyT2; type: cell-based
# Chain of GlyRα1/GlyT2 (Q9Y345 whole entry partner, one chain of several): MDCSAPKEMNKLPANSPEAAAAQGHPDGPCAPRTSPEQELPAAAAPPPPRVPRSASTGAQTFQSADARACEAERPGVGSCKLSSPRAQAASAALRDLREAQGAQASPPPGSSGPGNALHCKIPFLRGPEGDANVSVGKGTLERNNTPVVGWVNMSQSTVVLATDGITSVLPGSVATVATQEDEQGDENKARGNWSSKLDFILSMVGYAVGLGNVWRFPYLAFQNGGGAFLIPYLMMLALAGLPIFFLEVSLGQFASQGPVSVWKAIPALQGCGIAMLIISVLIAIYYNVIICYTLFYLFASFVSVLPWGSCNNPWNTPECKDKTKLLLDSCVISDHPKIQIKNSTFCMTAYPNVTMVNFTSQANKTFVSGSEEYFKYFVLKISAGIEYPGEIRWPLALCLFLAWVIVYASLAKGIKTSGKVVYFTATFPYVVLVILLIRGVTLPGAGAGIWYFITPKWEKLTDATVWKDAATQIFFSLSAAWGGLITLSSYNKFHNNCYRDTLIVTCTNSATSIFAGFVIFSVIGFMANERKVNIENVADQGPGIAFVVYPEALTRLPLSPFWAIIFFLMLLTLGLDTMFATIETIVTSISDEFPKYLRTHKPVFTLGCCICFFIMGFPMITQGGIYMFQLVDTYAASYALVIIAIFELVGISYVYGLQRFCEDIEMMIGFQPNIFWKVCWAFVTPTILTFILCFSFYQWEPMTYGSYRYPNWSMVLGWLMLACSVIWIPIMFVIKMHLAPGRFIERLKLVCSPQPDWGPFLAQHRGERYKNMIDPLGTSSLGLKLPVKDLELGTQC
# From the text: as §1, §2, §3
# Varying concentrations of substrate or agonist were applied to cells in ND96. […]
# [5] = biological target: T2, GlyRα1/GlyT1 (Homo sapiens, UniProt P23415); assay: Two-electrode voltage clamp, oocytes co-expressing GlyRα1/GlyT1; type: cell-based; details: non-transportable GlyR agonist; read-out: β-alanine EC50
# T2 construct: expressed in transfected cells; host or cells: Xenopus laevis oocytes (cRNA co-injection)
# T2 sequence (P23415 29-457): T1 sequence (P23415 29-457)
# From the text: as §1, §2, §3, §4, §5
Structure (SMILES),GlyRα1 Potentiation at EC5 (%) [1],GlyRα1 Potentiation at EC5 (%) ([1]; listed as 18-cis-ω9-glycine),effect on Imax of GlyRα1 ([1]; dose-dependent),effect on glycine EC50 of GlyRα1 ([1]; dose-dependent),nH of glycine dose-response in the presence of lipid [2],GlyT2 Activity: % Inhibition (1 µM) [3],GlyT2 Activity: % Inhibition (1 µM) ([3]; listed as 18-cis-ω9-glycine),pIC50 [3],GlyT2 Activity: Max inhibition (%) [3],pEC50 [4],"pEC50 ([2]; non-transportable GlyR agonist, read-out: β-alanine EC50)",pEC50 [5]
CCCCCCCC/C=C\CCCCCCCC(=O)NCC(=O)O [C18-cis-ω9-glycine],84.7 ± 14.0%,84.7 ± 14.0 (8) %,increases,decreases,2.4 ± 0.2 ns,50.1 ± 0.06%,89.6 ± 0.01%,7.51,95.0%,–,–,–
CCCCCCCCC=CCCCCCCCC(=O)NC(CCSC)C(=O)O [C18-cis-ω9-L-methionine],2.2 ± 4.2% and 2.2 ± 4.2 (6) %,–,–,–,2.2 ± 0.3 ns,84.9 ± 0.07%,–,7.53,91.2%,–,–,–
NCCC(=O)O [β-alanine],–,–,–,–,–,–,–,–,–,4.56,4.55,4.55
